Measurements from patent US20260078130A1, “NAMPT MODULATORS, PREPARATIONS, AND USES THEREOF” (SIRONAX LTD., priority 2022, published 2026).

What was measured:
[1] = molecular target: T1, human enzyme NAMPT (full length) (Homo sapiens, UniProt P43490); experiment: NMN fluorescence biochemical assay (stimulation of NMN synthesis by NAMPT); conditions: for EC50: NMN fluorescence assay, purified human NAMPT 100 nM, concentration giving half-maximal activation, read-out: Enzymatic EC50; for Enzymatic Emax: fold change of maximal activation compared to DMSO
T1 construct: human enzyme NAMPT (full length)
T1 sequence (P43490 whole entry): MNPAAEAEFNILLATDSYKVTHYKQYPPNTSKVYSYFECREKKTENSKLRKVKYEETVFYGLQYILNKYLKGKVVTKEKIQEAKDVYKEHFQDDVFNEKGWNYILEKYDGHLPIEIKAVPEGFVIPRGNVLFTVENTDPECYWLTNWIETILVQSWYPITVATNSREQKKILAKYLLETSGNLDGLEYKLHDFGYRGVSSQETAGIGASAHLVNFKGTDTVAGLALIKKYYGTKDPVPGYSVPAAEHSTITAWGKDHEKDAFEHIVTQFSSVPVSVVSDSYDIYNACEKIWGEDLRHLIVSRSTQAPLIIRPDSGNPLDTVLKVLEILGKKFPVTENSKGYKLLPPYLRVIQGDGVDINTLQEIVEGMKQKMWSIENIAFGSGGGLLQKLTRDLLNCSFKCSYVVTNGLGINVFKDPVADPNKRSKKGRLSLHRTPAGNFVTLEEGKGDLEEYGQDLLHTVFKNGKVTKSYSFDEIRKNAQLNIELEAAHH
Summary of the method: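 Full-length human NAMPT (100 nM) was preincubated 15 min at 37 °C with compound in 50 mM Tris-HCl pH 7.5, 10 mM MgCl2, 2 mM DTT, then reacted 1 h at 37 °C with 50 μM NAM, 100 μM PRPP, 4 mM ATP (stated solution concentrations). NMN was derivatised with acetophenone/KOH then formic acid and read at Ex/Em 382/445 nm; EC50 and Emax (fold over DMSO) reported.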

[2] = test system: endogenous NAMPT in U2OS cells; experiment: Cellular NAD+ modulation assay (NAD/NADH-Glo, U2OS cells); type: cell-based; conditions: Homo sapiens, 24 hours incubation, cellular NAD+; for maximal fold induction: read-out: Cellular Emax
Summary of the method: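 Endogenous NAMPT stimulation in U2OS cells treated with compound dilution series for 24 h at 37 °C. Cells lysed with DTAB base, acid-treated 15 min at 60 °C, neutralized, NAD+ read by NAD/NADH-Glo luminescence after 40 min at room temperature. EC50 and Emax (fold over DMSO) derived.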

Compound | EC50 [1] [nM] | Enzymatic Emax [1] | EC50 [2] [nM] | maximal fold induction [2]
Cc1cccc2c1C(Cc1c(Cl)cnn1C)N(CC1CC3(CNC(=O)O3)C1)C2=O (centres unmarked) [Compound 470, 2-((3-((4-chloro-1-methyl-1H-pyrazol-5-yl)methyl)-4-methyl-1-oxoisoindolin-2-yl)methyl)-5-oxa-7-azaspiro[3.4]octan-6-one] | ≥ 5000 | B (3≥B>2) | 500 to 5000 | > 1.5
O=C1NCC2(CC(CN3C(=O)c4ccccc4C3Cc3nnn(C4CC4)c3Cl)C2)O1 (centres unmarked) [Compound 471, 2-((1-((5-chloro-1-cyclopropyl-1H-1,2,3-triazol-4-yl)methyl)-3-oxoisoindolin-2-yl)methyl)-5-oxa-7-azaspiro[3.4]octan-6-one] | 500 to 5000 | B (3≥B>2) | < 500 | > 1.5
Cn1ncc(Cl)c1CC1c2cc(C3COC3)ccc2C(=O)N1CC1CC2(CNC(=O)O2)C1 (centres unmarked) [Compound 473, 2-((3-((4-chloro-1-methyl-1H-pyrazol-5-yl)methyl)-5-(oxetan-3-yl)-1-oxoisoindolin-2-yl)methyl)-5-oxa-7-azaspiro[3.4]octan-6-one] | 500 to 5000 | B (3≥B>2) | 500 to 5000 | > 1.5
Cn1ncc(Cl)c1CC1c2cc(Cl)ccc2C(=O)N1CC1CC2(CNC(=O)O2)C1 (centres unmarked) [Compound 474, 2-((5-chloro-3-((4-chloro-1-methyl-1H-pyrazol-5-yl)methyl)-1-oxoisoindolin-2-yl)methyl)-5-oxa-7-azaspiro[3.4]octan-6-one] | 500 to 5000 | B (3≥B>2) | < 500 | > 1.5
O=C1c2ccccc2C(Cc2ncccc2Br)N1CCc1cn[nH]c1 (centres unmarked) [Compound 475, 2-(2-(1H-pyrazol-4-yl)ethyl)-3-((3-bromopyridin-2-yl)methyl)isoindolin-1-one] | 500 to 5000 | C (2≥C) | 500 to 5000 | 1.2 to 1.5
O=C1NC(=O)C2(CC(CN3C(=O)c4ccccc4C3Cc3ncccc3Br)C2)O1 (centres unmarked) [Compound 476, 2-((1-((3-bromopyridin-2-yl)methyl)-3-oxoisoindolin-2-yl)methyl)-5-oxa-7-azaspiro[3.4]octane-6,8-dione] | ≥ 5000 | B (3≥B>2) | 5000 to 50000 | > 1.5
Cn1ncc(Cl)c1CC1c2ccccc2C(=O)N1CC#Cc1c[nH]nc1Cl (centres unmarked) [Compound 477, 3-((4-chloro-1-methyl-1H-pyrazol-5-yl)methyl)-2-(3-(3-chloro-1H-pyrazol-4-yl)prop-2-yn-1-yl)isoindolin-1-one] | < 500 | B (3≥B>2) | < 500 | > 1.5
Cc1n[nH]cc1C#CCN1C(=O)c2ccccc2C1Cc1c(Cl)cnn1C (centres unmarked) [Compound 478, 3-((4-chloro-1-methyl-1H-pyrazol-5-yl)methyl)-2-(3-(3-methyl-1H-pyrazol-4-yl)prop-2-yn-1-yl)isoindolin-1-one] | 500 to 5000 | B (3≥B>2) | 500 to 5000 | > 1.5
Cc1nn(C)c(C#N)c1CC1c2ccccc2C(=O)N1CC1CC2(CNC(=O)O2)C1 (centres unmarked) [Compound 479, 1,3-dimethyl-4-((3-oxo-2-((6-oxo-5-oxa-7-azaspiro[3.4]octan-2-yl)methyl)isoindolin-1-yl)methyl)-1H-pyrazole-5-carbonitrile] | 500 to 5000 | B (3≥B>2) | < 500 | > 1.5
Cn1ccc(Cl)c(CC2c3ccccc3C(=O)N2CC2CC3(CNC(=O)O3)C2)c1=O (centres unmarked) [Compound 480, 2-((1-((4-chloro-1-methyl-2-oxo-1,2-dihydropyridin-3-yl)methyl)-3-oxoisoindolin-2-yl)methyl)-5-oxa-7-azaspiro[3.4]octan-6-one] | < 500 | B (3≥B>2) | < 500 | > 1.5
Cc1ccn(C)c(=O)c1CC1c2ccccc2C(=O)N1CC1CC2(CNC(=O)O2)C1 (centres unmarked) [Compound 481, 2-((1-((1,4-dimethyl-2-oxo-1,2-dihydropyridin-3-yl)methyl)-3-oxoisoindolin-2-yl)methyl)-5-oxa-7-azaspiro[3.4]octan-6-one] | 500 to 5000 | B (3≥B>2) | 500 to 5000 | > 1.5
Cn1ncc(Cl)c1CC1c2ccccc2C(=S)N1CC1CC2(CNC(=O)O2)C1 (centres unmarked) [Compound 482, 2-((1-((4-chloro-1-methyl-1H-pyrazol-5-yl)methyl)-3-thioxoisoindolin-2-yl)methyl)-5-oxa-7-azaspiro[3.4]octan-6-one] | < 500 | B (3≥B>2) | < 500 | > 1.5
Cn1ncc(Cl)c1CC1c2ccccc2C(=O)N1C[C@H]1C[C@@]2(CNC(=O)O2)C1 (some centres unmarked) [Compound 483, (2r,4r)-2-((1-((4-chloro-1-methyl-1H-pyrazol-5-yl)methyl)-3-oxoisoindolin-2-yl)methyl)-5-oxa-7-azaspiro[3.4]octan-6-one] | 500 to 5000 | B (3≥B>2) | < 500 | 1.2 to 1.5
CN1CCn2c(cc(Cl)c2CC2c3ccccc3C(=O)N2CC2CC3(CNC(=O)O3)C2)C1 (centres unmarked) [Compound 484, 2-((1-((7-chloro-2-methyl-1,2,3,4-tetrahydropyrrolo[1,2-a]pyrazin-6-yl)methyl)-3-oxoisoindolin-2-yl)methyl)-5-oxa-7-azaspiro[3.4]octan-6-one] | 500 to 5000 | B (3≥B>2) | < 500 | 1.2 to 1.5
Cc1ccc2c(c1)C(Cc1c(Cl)cnn1C)N(CC1CC3(CNC(=O)O3)C1)C2=O (centres unmarked) [Compound 485, 2-((3-((4-chloro-1-methyl-1H-pyrazol-5-yl)methyl)-5-methyl-1-oxoisoindolin-2-yl)methyl)-5-oxa-7-azaspiro[3.4]octan-6-one] | 500 to 5000 | B (3≥B>2) | < 500 | > 1.5
Cn1ncc(Cl)c1CC1c2cc(F)ccc2C(=O)N1CC1CC2(CNC(=O)O2)C1 (centres unmarked) [Compound 486, 2-((3-((4-chloro-1-methyl-1H-pyrazol-5-yl)methyl)-5-fluoro-1-oxoisoindolin-2-yl)methyl)-5-oxa-7-azaspiro[3.4]octan-6-one] | 500 to 5000 | B (3≥B>2) | < 500 | > 1.5
Cn1ncc(Cl)c1CC1c2ccccc2C(=O)N1C[C@]1(F)C[C@@]2(CNC(=O)O2)C1 (some centres unmarked) [Compound 487, (2r,4r)-2-((1-((4-chloro-1-methyl-1H-pyrazol-5-yl)methyl)-3-oxoisoindolin-2-yl)methyl)-2-fluoro-5-oxa-7-azaspiro[3.4]octan-6-one] | 500 to 5000 | B (3≥B>2) | < 500 | > 1.5
O=C1NCC2(CC(CN3C(=O)c4ccccc4C3Cc3c(Cl)nc4ccccn34)C2)O1 (centres unmarked) [Compound 488, 2-((1-((2-chloroimidazo[1,2-a]pyridin-3-yl)methyl)-3-oxoisoindolin-2-yl)methyl)-5-oxa-7-azaspiro[3.4]octan-6-one] | 500 to 5000 | B (3≥B>2) | < 500 | > 1.5
Cn1nnc(Cl)c1CC1c2ccccc2C(=O)N1CC1CC2(CNC(=O)O2)C1 (centres unmarked) [Compound 489, 2-((1-((4-chloro-1-methyl-1H-1,2,3-triazol-5-yl)methyl)-3-oxoisoindolin-2-yl)methyl)-5-oxa-7-azaspiro[3.4]octan-6-one] | 500 to 5000 | B (3≥B>2) | 500 to 5000 | > 1.5
Cn1ncc(Cl)c1CC1c2ccccc2C(=O)N1CC1CC2(CNC(=S)O2)C1 (centres unmarked) [Compound 490, 3-((4-chloro-1-methyl-1H-pyrazol-5-yl)methyl)-2-((6-thioxo-5-oxa-7-azaspiro[3.4]octan-2-yl)methyl)isoindolin-1-one] | 500 to 5000 | B (3≥B>2) | 500 to 5000 | > 1.5
Cc1ncnc(C#N)c1CC1c2ccccc2C(=O)N1CC1CC2(CNC(=O)O2)C1 (centres unmarked) [Compound 491, 6-methyl-5-((3-oxo-2-((6-oxo-5-oxa-7-azaspiro[3.4]octan-2-yl)methyl)isoindolin-1-yl)methyl)pyrimidine-4-carbonitrile] | 500 to 5000 | B (3≥B>2) | < 500 | > 1.5
Cc1cncc(C#N)c1CC1c2ccccc2C(=O)N1CC1CC2(CNC(=O)O2)C1 (centres unmarked) [Compound 492, 5-methyl-4-((3-oxo-2-((6-oxo-5-oxa-7-azaspiro[3.4]octan-2-yl)methyl)isoindolin-1-yl)methyl)nicotinonitrile] | < 500 | B (3≥B>2) | < 500 | > 1.5
Cc1ccc(=O)n(C)c1CC1c2ccccc2C(=O)N1CC1CC2(CNC(=O)O2)C1 (centres unmarked) [Compound 493, 2-((1-((1,3-dimethyl-6-oxo-1,6-dihydropyridin-2-yl)methyl)-3-oxoisoindolin-2-yl)methyl)-5-oxa-7-azaspiro[3.4]octan-6-one] | 500 to 5000 | B (3≥B>2) | 500 to 5000 | > 1.5
